Results from paper PMC9959817, “Flow-Based Fmoc-SPPS Preparation and SAR Study of Cathelicidin-PY Reveals Selective Antimicrobial Activity” (Molecules, 2023).
≈ marks a conversion by molar mass, not a printed value. Like-named read-outs stand apart in the source and are kept apart here. Where a SMILES comes first, the peptide text is derived from it. Bridges are numbered along the chain shown (N, C = ends).

Tests used:
E. coli (ATCC 25922) = assay type: cell-based, Escherichia coli; details: 37 °C, technical triplicate, three independent occasions
Source text: (§1) As we were primarily interested in the clinical potential of cathelicidin-PY (1) and its analogues 2–9, cation-adjusted Mueller-Hinton broth (CAMHB) was implemented during our in vitro antimicrobial screening towards bacteria. However, non-cation adjusted Mueller Hinton broth (MHB) was also implemented to evaluate the cation sensitivity of these AMPs. In each medium, compounds 1–9 were subjected to minimum inhibitory concentration (MIC) assays with E. coli (ATCC 25922), P. aeruginosa (SVB-B9), and S. aureus (ATCC 29213), in accordance with CLSI microbroth dilution protocols (Table 1). It is noteworthy, however, that the initial report of cathelicidin-PY’s isolation documented MIC assays performed in Luria Broth (LB). Furthermore, antifungal activity towards C. albicans was investigated.
(§2) Staphylococcus aureus ATCC 29213, Pseudomonas aeruginosa (SVB-B9) (type strain), and Escherichia coli ATCC 25,922 were grown in either non-cation-adjusted or cation-adjusted Mueller Hinton (MH) broth at 37 °C with shaking (200 rpm). MIC assays were performed in technical triplicate in accordance with the CLSI-recommended protocol. All assays were performed independently on three occasions, with the reported MIC defined as the lowest concentration for which agreement was observed consistently for all replicates.

P. aeruginosa (SVB-B9) = assay: microbe, parasite or virus in culture; assay type: cell-based, Pseudomonas aeruginosa
Source text: as §1, §2

S. aureus (ATCC 29213) = assay: microbe, parasite or virus in culture; assay type: cell-based, Staphylococcus aureus; details: ATCC 29213; read-out: Minimum Inhibitory Concentration
Source text: as §1, §2

C. albicans (SC5314) = assay: microbe, parasite or virus in culture; assay type: cell-based, Candida albicans; details: SC5314; read-out: Minimum Inhibitory Concentration
Source text: as §1
Antimicrobial susceptibility of Candida albicans SC5314 (type strain) was assessed by broth microdilution in RPMI 1640 media in accordance with the CLSI recommended protocols. All assays were performed independently on three occasions, with the reported MIC defined as the lowest concentration for which agreement was observed consistently for all replicates.

Candida albicans = details: isolation report; cited from earlier work
Source text: (§3) Furthermore, these have shown promising anti-inflammatory and specific immune modulatory capabilities in immunocytes, as well as antiviral activity against human immunodeficiency virus (HIV), influenza A virus (I ...

Escherichia coli = details: isolation report, assays in Luria Broth (LB); cited from earlier work
Source text: as §3

Pseudomonas aeruginosa = details: isolation report, assays in Luria Broth (LB); cited from earlier work
Source text: as §3

Staphylococcus aureus = details: isolation report, assays in Luria Broth (LB); cited from earlier work
Source text: as §3

| Molecule | Minimum Inhibitory Concentration (E. coli (ATCC 25922); cation-adjusted Mueller-Hinton broth (CAMHB)) [µM] | Minimum Inhibitory Concentration (E. coli (ATCC 25922); non-cation-adjusted Mueller-Hinton broth (MHB)) [µM] | MIC (P. aeruginosa (SVB-B9); P. aeruginosa SVB-B9 type strain, non-cation-adjusted Mueller-Hinton broth (MHB), 37 °C, technical triplicate, three independent occasions, read-out: Minimum Inhibitory Concentration) [µM] | MIC (S. aureus (ATCC 29213)) [µM] | MIC (C. albicans (SC5314)) [µM] | MIC (Candida albicans) [µM] | MIC (Escherichia coli) [µM] | MIC (Pseudomonas aeruginosa) [µM] | MIC (Staphylococcus aureus) [µM] | Minimum Inhibitory Concentration (P. aeruginosa (SVB-B9); SVB-B9) [µM] |
| --- | --- | --- | --- | --- | --- | --- | --- | --- | --- | --- |
| polymyxin B sulfate [reference compound] | 1 | 1 | 2 |  |  |  |  |  |  |  |
| CC[C@H](C)[C@H](NC(=O)[C@H](Cc1c[nH]cn1)NC(=O)[C@H](CO)NC(=O)[C@@H](NC(=O)[C@@H](NC(=O)[C@@H](NC(=O)[C@@H](NC(=O)[C@H](CCCNC(=N)N)NC(=O)[C@H](CC(C)C)NC(=O)[C@H](CCCCN)NC(=O)[C@H](CCC(=O)O)NC(=O)[C@H](CCCCN)NC(=O)[C@H](CC(C)C)NC(=O)[C@H](CCCCN)NC(=O)[C@@H]1CSSC[C@H](NC(=O)[C@H](CCCCN)NC(=O)[C@@H](N)CCCNC(=N)N)C(=O)N[C@@H](CC(N)=O)C(=O)N[C@@H](Cc2ccccc2)C(=O)N[C@@H](CC(C)C)C(=O)N1)[C@@H](C)O)C(C)C)[C@@H](C)CC)[C@@H](C)O)C(=O)N[C@@H](CC(=O)O)C(=O)N[C@@H](CCCCN)C(=O)N[C@H](C(=O)N[C@@H](CC(C)C)C(=O)N[C@@H](CCCNC(=N)N)C(=O)N1CCC[C@H]1C(=O)N[C@@H](CCC(N)=O)C(=O)NCC(=O)O)C(C)C [Compound 1, Cathelicidin-PY] (H-RKCNFLCKLKEKLRTVITSHIDKVLRPQG-OH; disulfide 3-7) |  |  |  | >64 | >64 | 1.37 (≈ 4.69 µg/mL) | 1.37 (≈ 4.69 µg/mL) | 5.48 (≈ 18.8 µg/mL) | 2.74 (≈ 9.38 µg/mL) |  |
| CC[C@H](C)[C@H](NC(=O)[C@H](Cc1c[nH]cn1)NC(=O)[C@H](CO)NC(=O)[C@@H](NC(=O)[C@@H](NC(=O)[C@@H](NC(=O)[C@@H](NC(=O)[C@H](CCCNC(=N)N)NC(=O)[C@H](CC(C)C)NC(=O)[C@H](CCCCN)NC(=O)[C@H](CCC(=O)O)NC(=O)[C@H](CCCCN)NC(=O)[C@H](CC(C)C)NC(=O)[C@H](CCCCN)NC(=O)[C@@H]1CCC(=O)NCCCC[C@H](NC(=O)[C@H](CCCCN)NC(=O)[C@@H](N)CCCNC(=N)N)C(=O)N[C@@H](CC(N)=O)C(=O)N[C@@H](Cc2ccccc2)C(=O)N[C@@H](CC(C)C)C(=O)N1)[C@@H](C)O)C(C)C)[C@@H](C)CC)[C@@H](C)O)C(=O)N[C@@H](CC(=O)O)C(=O)N[C@@H](CCCCN)C(=O)N[C@H](C(=O)N[C@@H](CC(C)C)C(=O)N[C@@H](CCCNC(=N)N)C(=O)N1CCC[C@H]1C(=O)N[C@@H](CCC(N)=O)C(=O)NCC(=O)O)C(C)C [Compound 6] (H-RKKNFLEKLKEKLRTVITSHIDKVLRPQG-OH; lactam 3-7) |  |  |  | >64 | >64 |  |  |  |  | 4 to 8 |
